Assay results taken from patent US4746728A, “8-glycine, des-19-leucine-calcitonin” (Armour Pharmaceutical Company, priority 1986, dated 1988).
Positions of bridges follow the written chain, without caps; N, C: chain ends. Residues, ends and D or L forms follow the SMILES beside them. No end group written: not given here.

Tests used:
[1] = system: serum calcium concentration
Protocol: Biological Assay Of Calcitonin Analogs In Vivo
Rats were divided into four groups of seven animals, and each group was assigned at random to a dose of standard or test solution. Low and high doses were chosen from the linear portion of the dose-response curve. For the salmon calcitonin standard, the values were 0.7 and 2.1 ng. peptide/100 g. body weight (BW). This dose approximates 3 and 9 MU/100 g. […] Peptides were given by subcutaneous injection (0.2 ml/100 g. BW) and blood was withdrawn 1 hour later for serum calcium determination. Sera are processed and analyzed within two hours of collection. Results were analyzed within two hours of collection.

[2] = literature values, Monikawa et al.; cited from earlier work

## CC(C)C[C@H](NC(=O)CNC(=O)[C@@H]1CSSC[C@H](N)C(=O)N[C@@H](CO)C(=O)N[C@@H](CC(N)=O)C(=O)N[C@@H](CC(C)C)C(=O)N[C@@H](CO)C(=O)N[C@@H]([C@@H](C)O)C(=O)N1)C(=O)NCC(=O)N[C@@H](CCCCN)C(=O)N[C@@H](CC(C)C)C(=O)N[C@@H](CO)C(=O)N[C@@H](CCC(N)=O)C(=O)N[C@@H](CCC(=O)O)C(=O)N[C@@H](CC(C)C)C(=O)N[C@@H](Cc1c[nH]cn1)C(=O)N[C@@H](CCCCN)C(=O)N[C@@H](CCC(N)=O)C(=O)N[C@H](C(=O)N[C@@H](Cc1ccc(O)cc1)C(=O)N1CCC[C@H]1C(=O)N[C@@H](CCCNC(=N)N)C(=O)N[C@H](C(=O)N[C@@H](CC(N)=O)C(=O)N[C@H](C(=O)NCC(=O)N[C@@H](CO)C(=O)NCC(=O)N[C@H](C(=O)N1CCC[C@H]1C(N)=O)[C@@H](C)O)[C@@H](C)O)[C@@H](C)O)[C@@H](C)O [Gly^8, des-Leu^19 -SCT, 8-glycine, des-19-leucine-salmon calcitonin] (H-CSNLSTCGLGKLSQELHKQTYPRTNTGSGTP-NH2; disulfide 1-7)
[1]; rat, in vivo, sc
  biological potency: 11,400 IU/mg

## CC(C)C[C@H](NC(=O)[C@H](CCCCN)NC(=O)CNC(=O)[C@H](CC(C)C)NC(=O)[C@@H](NC(=O)[C@@H]1CSSC[C@H](N)C(=O)N[C@@H](CO)C(=O)N[C@@H](CC(N)=O)C(=O)N[C@@H](CC(C)C)C(=O)N[C@@H](CO)C(=O)N[C@@H]([C@@H](C)O)C(=O)N1)C(C)C)C(=O)N[C@@H](CO)C(=O)N[C@@H](CCC(N)=O)C(=O)N[C@@H](CCC(=O)O)C(=O)N[C@@H](CC(C)C)C(=O)N[C@@H](Cc1c[nH]cn1)C(=O)N[C@@H](CCCCN)C(=O)N[C@@H](CC(C)C)C(=O)N[C@@H](CCC(N)=O)C(=O)N[C@H](C(=O)N[C@@H](Cc1ccc(O)cc1)C(=O)N1CCC[C@H]1C(=O)N[C@@H](CCCNC(=N)N)C(=O)N[C@H](C(=O)N[C@@H](CC(N)=O)C(=O)N[C@H](C(=O)NCC(=O)N[C@@H](CO)C(=O)NCC(=O)N[C@H](C(=O)N1CCC[C@H]1C(N)=O)[C@@H](C)O)[C@@H](C)O)[C@@H](C)O)[C@@H](C)O [salmon calcitonin, Salmon calcitonin]
[1]; independently determined content of the standard
  potency of the standard salmon calcitonin used: greater than 4,000 IU/mg

## eel calcitonin (CSNLSTCVLGKLSQELHKLQTYPRTDVGAGTP; ends and bridges not checked; cysteine pairing not given here; UniProt P01262 1-32, looked up) [synthetic eel calcitonin, natural 32-amino-acid calcitonin peptide]
[2]
  hypocalcemic potency: around 4300 IU/mg
